Measurements: PubChem BioAssay (NCI)
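Following 48 hours of exposure in 96-well plates, responses at five concentrations were used to interpolate endpoints linearly. At the TGI there is no net growth.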

Columns and labels:
Assay in all cases: DTP human tumour cell line panel, 48 h
[1] = test system: LOX IMVI melanoma
[2] = test system: M14 melanoma
[3] = test system: MDA-N
[4] = test system: UO-31 renal
[5] = test system: RPMI-8226 leukemia
[6] = test system: SK-MEL-2 melanoma
[7] = test system: COLO 205 colon
[8] = test system: ACHN renal
[9] = test system: T-47D breast
[10] = test system: HCC-2998 colon
[11] = test system: NCI-H460 lung

Row | SMILES | TGI [1] [µM] | TGI [2] [µM] | TGI [3] [µM] | TGI [4] [µM] | TGI [5] [µM] | TGI [6] [µM] | TGI [7] [µM] | TGI [8] [µM] | TGI [9] [µM] | TGI [10] [µM] | TGI [11] [µM]
1 | NS(=O)(=O)c1ccc(NCc2cccc3c(=O)c4ccc(Cl)cc4oc23)cc1 | > 100 | > 93.1 | > 80.2 | > 93.2 | > 92.2 | > 100 | > 100 | > 100 | > 100 | > 100 | 
2 | O=C1OCC2=C1C(c1ccc(Cl)cc1)c1cc3c(cc1O2)OCO3 (stereo not drawn) | > 100 | > 100 | 3.9 | > 100 | > 100 | > 100 | > 100 | > 100 | > 100 | > 100 | > 100
3 | O=C1C(CN2CCCC2)CCC1CN1CCCC1 (stereo not drawn) | > 51.9 | 29.7 | 29.9 | 32.1 | 34.9 | 47.1 | 17.5 | 29.3 | 37.8 | > 100 | > 100
4 | COc1ccccc1Nc1nc(N)nc(N)c1N | 41.7 | > 100 | 32.9 | > 100 | 82.7 | > 100 | > 100 | > 100 | > 100 | > 100 | > 100
5 | O=C(c1ccccc1)N1N=C(C(F)(F)F)CC1(O)C(F)(F)F (stereo not drawn) | > 100 | > 100 | > 100 | > 100 | > 100 | > 100 | > 100 | > 100 | > 100 | > 100 | > 100
6 | CC(=O)C1=C(C)N2C(=NC3=C(CCc4ccccc43)C2c2ccc(Cl)cc2)S1 (stereo not drawn) | > 100 | > 100 | > 100 | > 100 | 12.8 | > 100 | > 100 | > 100 | > 100 | > 100 | > 100
7 | Nc1nc(NCc2ccccc2)cc(NCc2ccccc2)n1 | 45 | 39.5 | 5.97 | 21 | 24.6 | 31.2 | 27.3 | 28.1 | 25.9 | 24.6 | 32.5
8 | CC(C)CCNC(=O)c1ccc(CNC(=O)/C=C/c2ccc3c(c2)-c2ccccc2C3)cc1 | > 100 | > 100 | > 100 | > 100 | > 100 | > 100 | > 100 | > 100 | > 100 | > 100 | > 100
9 | Cc1ccc(Nc2nc3ccccc3nc2NS(=O)(=O)c2ccc(N)cc2)cc1 | > 100 | > 100 | > 100 | 65.5 | > 100 | 81.9 | > 100 | > 100 | > 100 | 6.55 | > 100
10 | O=c1cc(O)c1=O | > 100 | > 100 | > 100 | > 100 | > 100 | > 100 | > 100 | > 100 | > 100 | > 100 | > 100
11 | COc1cc(Nc2nc(NS(=O)(=O)c3cc(C)c(Cl)cc3S)n[nH]2)cc(OC)c1OC | > 100 | > 100 | > 100 | > 100 | > 100 | > 100 | > 100 | > 100 | > 100 | > 100 | > 100
12 | CCOC(=O)n1c(=O)nc2c3c(ncn21)Oc1c(c(-c2ccccc2)nn1-c1ccccc1)C3c1ccc(Cl)cc1 (stereo not drawn) | 2.78 | 3.33 | 3.01 | 2.85 | 3.3 | 3.23 | 2.59 | 3.09 | 3.15 | 1.97 | 3.21
13 | NS(=O)(=O)c1ccc(NNc2c3ccccc3nc3c(C(=O)Nc4ccc(S(N)(=O)=O)cc4)cccc23)cc1 | 27.5 | > 100 | > 100 | > 100 | > 100 | 54.4 | > 100 | > 100 | > 100 | 86.7 | > 100
14 | COC(=O)C#CC1(O)C=CC(=O)C=C1 | 1.9 | 12.1 | > 34.5 | 10.6 | 2.67 | 7.64 |  | 10.1 | 3.74 | 8.15 | 13.9
15 | CCOC(=O)c1c2ccccc2n2c(=O)n(-c3ccccc3)nnc12 | > 100 | > 100 | > 100 | > 100 | > 100 | > 100 | > 100 | > 100 | 71.5 | > 100 | > 100
16 | CC(=O)OCC1OC(Sc2nc(-c3ccccc3)c(C#N)c(=O)n2C2OC(COC(C)=O)C(OC(C)=O)C(OC(C)=O)C2OC(C)=O)C(OC(C)=O)C(OC(C)=O)C1OC(C)=O (stereo not drawn) | > 100 | > 100 | > 100 | > 100 | > 100 | > 100 | > 100 | > 100 | > 100 | > 100 | > 100
17 | CC(C)C1CC(CO)(CNc2nc(N)nc(Cl)c2C=O)C1 (stereo not drawn) | 3.81 | 3.24 | 9.31 | 13 | > 100 | 3.31 | 28 | 22.8 | > 100 | 4.32 | 31.9
18 | Cc1c(CNc2ccc(Cl)c(Cl)c2Cl)cnc2nc(N)nc(N)c12 | 13.6 | > 100 | > 32 | > 100 | 49 | > 90 | 33.8 | > 48.8 | 24.9 | > 100 | > 48.9
19 | COc1cc(N(CCC#N)CCC#N)ccc1/C(N=Nc1cccc([N+](=O)[O-])c1)=N\NC(=O)c1ccc(C)cc1 | > 100 | > 100 | > 100 | > 100 | > 100 | > 100 | > 100 | > 100 | > 100 | > 100 | 70.5
20 | CC(=O)OCC1OC(NC(=S)Nn2c(-c3ccccc3)nc3ccccc3c2=O)C(OC(C)=O)C(OC(C)=O)C1OC(C)=O (stereo not drawn) | > 100 | > 100 | > 100 | > 100 | > 100 | 68.3 | > 100 | > 100 | 60.2 | > 100 | > 100
21 | CC(C)=CCN1c2ccccc2[C@@]2(CC=C(C)C)CCN(C)[C@@H]12 | 34 |  | > 100 | 41.8 | 51 | 33.3 | 26.8 | > 100 | 50.3 | 29.5 | 30.4
22 | O=[N+]([O-])C1=Cc2c(O)ccc(O)c2C2c3ccccc3NC12 (stereo not drawn) | > 52.7 | 28.2 | 39.3 | 11.8 | 63.6 | 40.1 | 33.9 | 16 | > 55.8 | 24.7 | 33.5
23 | CN(C)CCCCN1c2ccccc2Sc2ccc(N=[N+]=[N-])cc21 | 5.77 | 3.06 | 3.59 | 19 | 5.45 | 9.66 | 3.13 | 12.3 | 13.5 | 3.18 | 16.2
24 | CCO/C=N\C1=C(C#N)SC2=N/C(=C\c3ccco3)C(=O)N21 | > 100 | > 100 | > 100 | > 100 | > 100 | > 100 | > 100 | > 100 | > 100 | > 100 | 
25 | N#CC(C#N)=CNC(=S)Nc1ccc(S(=O)(=O)Nc2nccs2)cc1 | > 100 | > 100 | > 100 | > 100 |  | > 100 | > 100 | > 100 | > 100 | > 100 | > 100
26 | COc1cc(CCNC2=CC(=O)c3ncccc3C2=O)ccc1O | 6.08 | 3.05 | 2.72 | 17.3 | 30.5 | 9.79 | 32.6 | 29 | > 63.6 | 16.8 | 2.71
27 | CC(=O)Nc1ccc2c3c(cc(O)c2c1)N(C(=O)CCCCCCC(=O)Nc1ccc2c4c(cc(O)c2c1)N(C(=O)OC(C)(C)C)CC4CCl)CC3CCl (stereo not drawn) | > 33.4 | 0.374 | 0.332 | 3.35 |  | 0.0593 | 0.284 | 0.465 | 2.3 | 0.238 | 0.245
28 | CC(=O)OCCn1c(Cc2ccc(Cl)cc2)nn(C(C)=O)c1=O | > 100 | > 100 | > 100 | > 100 | > 100 | > 100 | > 100 | > 100 | > 100 | > 100 | > 100
29 | COC(=O)[C@]1(CCC(C)=O)C(=O)C=CN([C@H](C)c2ccccc2)[C@@H]1Cc1ccc(OC)c(OCc2ccccc2)c1I | 31 | 28.2 | 41.3 | 31.6 | 51.7 | 31.7 | 47.7 | 71.8 | 49.4 | 29.2 | 30.7
